Common to all, as to type: cell-based
The subject of test [1] is M. luteus ATCC 9341. The test can be described thus: Radial diffusion assay. The note with it: up-concentrated S. cerevisiae supernatants. As for the experimental part: (§1) The supernatants described above in Example 10 were analyzed in a radial diffusion assay following a previously published protocol for detection of antimicrobial activity (Lehrer et al. (1991), Ultra sensitive assays for endogenous antimicrobial polypeptides, J Immunol Methods 137: 167-173). Target bacteria (10^6 colony forming units (CFU)) were added to 10 ml of underlay agarose (1% low electro-endosmosis agarose, 0.03% Trypticase soy broth, 10 mM sodium phosphate, pH 7.4, 37 degrees Celsius). Suspension was solidified on an INTEGRID Petri Dish (Becton Dickinson Labware, NJ). A 3 mm Gel Puncher was used to make holes in the underlay agarose (Amersham Pharmacia Biotech, Sweden). Samples were added to the holes and incubated at 37 degrees Celsius, 3 hours. An overlay was poured on top and the plate was incubated overnight (LB media, 7.5% Agar). Antimicrobial activity was seen as bacterial clearing zones around the wells. Living cells was counterstained by adding 10 ml, 0.2 mM MTT (3-(4,5-Dimethylthiazol-2-yl)-2,5-diphenyltetrazolium bromide Thiazolyl blue). All standard protocols has been described elsewhere (Sambrook, Fritsch, and Maniatis, 1989).
(§2) The results in Table 2 show zones of inhibition of up-concentrated samples against three ATCC strains.

Test [2] concerns B. subtilis ATCC 6633. The test can be described thus: Radial diffusion assay. To be noted: up-concentrated S. cerevisiae supernatants. As for the experimental part: as §1, §2
In test [3] the test system is S. carnosus ATCC 51365. As to the kind of experiment: Radial diffusion assay. To be noted: up-concentrated S. cerevisiae supernatants. As to the method: as §1, §2
Test [4] relates to Staphylococcus carnosus, ATCC 51365. As to the kind of experiment: MIC microdilution assay (NCCLS/CLSI). The note with it: tested 0.06-32 μg/ml. As to the method: (§3) Purified Oystrisin and Piceasin were evaluated for antimicrobial activity in a microdillution assay. The Minimal Inhibitory Concentration (MIC) was determined following the NCCLS/CLSI guidelines from CLSI (Clinical and Laboratory Standards Institute).
(§4) Oystrisin and Piceasin were tested at the following concentrations: 32; 16; 8; 4; 2; 1; 0.50; 0.25; 0.13; and 0.06 μg/ml.

Test [5] has as its system Staphylococcus aureus, ATCC 43300 (MRSA). As to the kind of experiment: MIC microdilution assay (NCCLS/CLSI). To be noted: tested 0.06-32 μg/ml. As to the method: as §3, §4
For test [6], the system named is Streptococcus pyogenes, ATCC 12344. The test can be described thus: MIC microdilution assay (NCCLS/CLSI). The note with it: tested 0.06-32 μg/ml. As to the method:
as §3, §4

The test system of test [7] is Staphylococcus epidermidis, ATCC 12228. As to the kind of experiment: MIC microdilution assay (NCCLS/CLSI). To be noted: tested 0.06-32 μg/ml. As for the experimental part: as §3, §4
Test [8] has as its system Staphylococcus aureus, ATCC 29213 (MSSA). The test can be described thus: MIC microdilution assay (NCCLS/CLSI). To be noted: tested 0.06-32 μg/ml. As for the experimental part:
as §3, §4

For test [9], the system named is Streptococcus pneumoniae, ATCC 49619. The test can be described thus: MIC microdilution assay (NCCLS/CLSI). To be noted: tested 0.06-32 μg/ml. As for the experimental part: as §3, §4

Zones of inhibition and MIC data for five substances are collected here from US7893196B2, “Polypeptides having antimicrobial activity and polynucleotides encoding same” (Novozymes Aderium Biotech A/S, priority 2004, dated 2011).

For “Gibbosin: the polypeptide shown as amino acids 1 to 38 of SEQ ID NO:6; Mesobuthus gibbosus defensin (MKTIVLLFVLALVFCTLEMGMVEAGFGCPFNQGRCHRH; listed as Mesobuthus gibbosus)”, the zones of inhibition in [1] turned out to be 6 mm; in test [2] it was 8 mm; in test [3] it was 9 mm.
Turning to “Oystrisin: the polypeptide shown as amino acids 1 to 43 of SEQ ID NO:8; Crassostrea gigas defensin (MKVFVLLTLAVLLMVSADMAFAGFGCPGNQLKCNNHCKSISCR; Crassostrea gigas)”, the MIC in test [4] turned out to be 0.5 µg/mL; in test [5], 16 µg/mL; in test [6], 0.03 µg/mL; in test [7], 32 µg/mL; in test [8], 32 µg/mL; in test [9], 0.13 µg/mL.
With “Piceasin: the polypeptide shown as amino acids 1 to 40 of SEQ ID NO:2; Picea glauca defensin (MKFTISIIAALAFFAQGIVAAPAPIPEAAAVAAPEAEPKA; listed as Picea glauca)”, the MIC in test [4] was 16 µg/mL; in test [5], over 32 µg/mL; in test [6], 1 µg/mL; in test [7] it was over 32 µg/mL; in test [8] it was over 32 µg/mL; in test [9], 16 µg/mL.
Take “Virgisin-1: the polypeptide shown as amino acids 1 to 40 of SEQ ID NO:4; Crassostrea virginica defensin (MKVFVLLTIAVMLMVSADVALAGFGCPLNRYQCHSHCQSI; listed as Crassostrea virginica)”: the values for the zones of inhibition in test [1], in test [2] and in [3] were 5 mm, 6 mm and 7 mm, respectively.
For the substance “Virgisin-2: the polypeptide shown as amino acids 1 to 42 of SEQ ID NO:10; Crassostrea virginica defensin (MKVFVLLTIAVMLLVSADVATADNGCPRRPRICHNRCIYKGR; listed as Crassostrea virginica)”, the results for the zones of inhibition in test [1], in [2] and in test [3] were 0 mm, 5 mm and 8 mm, respectively.
